Measurements from ChEMBL document CHEMBL1127720, “Adamantane and Nipecotic Acid Derivatives as Novel -Turn Mimics” (Bioorg Med Chem Lett, 1994).

Legend:
[1] = biological target: T1, Integrin alpha-IIb/beta-3 (Homo sapiens) (UniProt P05106+P08514); assay: Inhibition of Fibrinogen Receptor at 50 uM; assay type: protein-complex assay
[2] = biological target: T1, Integrin alpha-IIb/beta-3 (Homo sapiens); assay: Percent inhibition of platelet aggregation at 20 uM; assay type: functional
[3] = biological target: T1, Integrin alpha-IIb/beta-3 (Homo sapiens); assay: Percent inhibition of platelet aggregation at 50 uM; assay type: functional

inhibition [1] [%]	inhibition [2] [%]	inhibition [3] [%]	Structure (SMILES)
24	–	–	CC(=O)N[C@@H](CCCCN)C(=O)N1CCCC(C(=O)NCC(=O)O)C1 (some centres undefined)
44	40	–	CC(C)(C)OC(=O)NC(CCCCN)C(=O)NC12CC3CC(CC(NCC(=O)O)(C3)C1)C2 (centres undefined)
–	–	86	CC(=O)N[C@@H](CCCCN)C(=O)N1CCCC(C(=O)NCCC(=O)O)C1 (some centres undefined)
